Results as given in PubChem BioAssay (NCI).
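GI50 = concentration required for 50% inhibition of growth. TGI is the concentration that stops growth completely.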

How the values were obtained:
Experiment in all cases: growth of human tumour cells (NCI), 384-well format
HL-60(TB) leukemia = tested on: HL-60(TB) leukemia
UACC-257 melanoma = tested on: UACC-257 melanoma
NCI-H226 lung = tested on: NCI-H226 lung
HT29 colon = tested on: HT29 colon
MDA-MB-435 melanoma = tested on: MDA-MB-435 melanoma
HOP-92 NSCLC = tested on: HOP-92 NSCLC
KM12 colon = tested on: KM12 colon
OVCAR-8 ovarian = tested on: OVCAR-8 ovarian
SK-MEL-2 melanoma = tested on: SK-MEL-2 melanoma
MOLT-4 leukemia = tested on: MOLT-4 leukemia
HOP-62 NSCLC = tested on: HOP-62 NSCLC
NCI/ADR-RES ovarian = tested on: NCI/ADR-RES ovarian
RPMI-8226 leukemia = tested on: RPMI-8226 leukemia
K-562 leukemia = tested on: K-562 leukemia
SK-MEL-5 melanoma = tested on: SK-MEL-5 melanoma
TK-10 renal = tested on: TK-10 renal
786-0 renal = tested on: 786-0 renal
NCI-H322M lung = tested on: NCI-H322M lung
LOX IMVI melanoma = tested on: LOX IMVI melanoma
UACC-62 melanoma = tested on: UACC-62 melanoma
COLO 205 colon = tested on: COLO 205 colon
IGROV1 ovarian = tested on: IGROV1 ovarian
NCI-H460 NSCLC = tested on: NCI-H460 NSCLC
A549 NSCLC = tested on: A549 NSCLC
SR leukemia = tested on: SR leukemia
M14 melanoma = tested on: M14 melanoma
MDA-MB-231 breast = tested on: MDA-MB-231 breast
NCI-H522 lung = tested on: NCI-H522 lung
UO-31 renal = tested on: UO-31 renal
HCT-15 colon = tested on: HCT-15 colon
T-47D breast = tested on: T-47D breast
SN12C renal = tested on: SN12C renal
A498 renal = tested on: A498 renal
HCC-2998 colon = tested on: HCC-2998 colon
NCI-H23 lung = tested on: NCI-H23 lung
MALME-3M melanoma = tested on: MALME-3M melanoma
SF-539 CNS = tested on: SF-539 CNS
MCF7 breast = tested on: MCF7 breast
CAKI-1 renal = tested on: CAKI-1 renal
SK-MEL-28 melanoma = tested on: SK-MEL-28 melanoma
RXF 393 renal = tested on: RXF 393 renal
PC-3 prostate = tested on: PC-3 prostate
OVCAR-5 ovarian = tested on: OVCAR-5 ovarian
OVCAR-3 ovarian = tested on: OVCAR-3 ovarian
SK-OV-3 ovarian = tested on: SK-OV-3 ovarian
SNB-19 CNS = tested on: SNB-19 CNS
CCRF-CEM leukemia = tested on: CCRF-CEM leukemia
SF-295 CNS = tested on: SF-295 CNS
ACHN renal = tested on: ACHN renal
U251 glioblastoma = tested on: U251 glioblastoma
SW-620 colon = tested on: SW-620 colon
DU-145 prostate = tested on: DU-145 prostate
OVCAR-4 ovarian = tested on: OVCAR-4 ovarian
BT-549 breast = tested on: BT-549 breast
HCT-116 colon = tested on: HCT-116 colon
SF-268 CNS = tested on: SF-268 CNS
MDA-MB-468 breast = tested on: MDA-MB-468 breast

## COCCOCCOCCOCCOC(=O)OC[n+]1ccc(NC(=NCCCCCCOc2ccc(Cl)cc2)NC#N)cc1
HL-60(TB) leukemia
  GI50: < 10 nM
  TGI: < 10 nM
UACC-257 melanoma
  GI50: < 10 nM
  TGI: 15.8 nM
NCI-H226 lung
  GI50: 77.9 nM
  TGI: 2960 nM
HT29 colon
  GI50: < 10 nM
  TGI: < 10 nM
MDA-MB-435 melanoma
  GI50: < 10 nM
  TGI: < 10 nM
HOP-92 NSCLC
  GI50: 21.6 nM
  TGI: 41.5 nM
KM12 colon
  GI50: < 10 nM
  TGI: < 10 nM
OVCAR-8 ovarian
  GI50: < 10 nM
  TGI: < 10 nM
SK-MEL-2 melanoma
  GI50: < 10 nM
  TGI: < 10 nM
MOLT-4 leukemia
  GI50: < 10 nM
  TGI: < 10 nM
HOP-62 NSCLC
  GI50: < 10 nM
  TGI: < 10 nM
NCI/ADR-RES ovarian
  GI50: < 10 nM
  TGI: < 10 nM
RPMI-8226 leukemia
  GI50: < 10 nM
  TGI: < 10 nM
K-562 leukemia
  GI50: < 10 nM
  TGI: < 10 nM
SK-MEL-5 melanoma
  GI50: < 10 nM
  TGI: < 10 nM
TK-10 renal
  GI50: < 10 nM
  TGI: < 10 nM
786-0 renal
  GI50: < 10 nM
  TGI: < 10 nM
NCI-H322M lung
  GI50: < 10 nM
  TGI: < 10 nM
LOX IMVI melanoma
  GI50: < 10 nM
  TGI: < 10 nM
UACC-62 melanoma
  GI50: < 10 nM
  TGI: < 10 nM
COLO 205 colon
  GI50: < 10 nM
  TGI: < 10 nM
IGROV1 ovarian
  GI50: < 10 nM
  TGI: < 10 nM
NCI-H460 NSCLC
  GI50: < 10 nM
  TGI: < 10 nM
A549 NSCLC
  GI50: < 10 nM
  TGI: 19.4 nM
SR leukemia
  GI50: 18.8 nM
  TGI: 33.3 nM
M14 melanoma
  GI50: < 10 nM
  TGI: 18.9 nM
MDA-MB-231 breast
  GI50: 15.2 nM
  TGI: 30.1 nM
NCI-H522 lung
  GI50: < 10 nM
  TGI: < 10 nM
UO-31 renal
  GI50: < 10 nM
  TGI: < 10 nM
HCT-15 colon
  GI50: < 10 nM
  TGI: < 10 nM
T-47D breast
  GI50: < 10 nM
  TGI: < 10 nM
SN12C renal
  GI50: < 10 nM
  TGI: < 10 nM
A498 renal
  GI50: 25.3 nM
  TGI: 58.6 nM
HCC-2998 colon
  GI50: < 10 nM
  TGI: < 10 nM
NCI-H23 lung
  GI50: < 10 nM
  TGI: < 10 nM
MALME-3M melanoma
  GI50: 25.3 nM
  TGI: 46.4 nM
SF-539 CNS
  GI50: < 10 nM
  TGI: < 10 nM
MCF7 breast
  GI50: < 10 nM
  TGI: < 10 nM
CAKI-1 renal
  GI50: < 10 nM
  TGI: < 10 nM
SK-MEL-28 melanoma
  GI50: < 10 nM
  TGI: < 10 nM
RXF 393 renal
  GI50: < 10 nM
  TGI: < 10 nM
PC-3 prostate
  GI50: < 10 nM
  TGI: < 10 nM
OVCAR-5 ovarian
  GI50: < 10 nM
  TGI: < 10 nM
OVCAR-3 ovarian
  GI50: < 10 nM
  TGI: < 10 nM
SK-OV-3 ovarian
  GI50: < 10 nM
  TGI: < 10 nM
SNB-19 CNS
  GI50: < 10 nM
  TGI: < 10 nM
CCRF-CEM leukemia
  GI50: < 10 nM
  TGI: < 10 nM
SF-295 CNS
  GI50: < 10 nM
  TGI: < 10 nM
ACHN renal
  GI50: < 10 nM
  TGI: < 10 nM
U251 glioblastoma
  GI50: < 10 nM
  TGI: < 10 nM
SW-620 colon
  GI50: < 10 nM
  TGI: < 10 nM
DU-145 prostate
  GI50: < 10 nM
  TGI: 18.8 nM
OVCAR-4 ovarian
  GI50: < 10 nM
  TGI: < 10 nM
BT-549 breast
  GI50: < 10 nM
  TGI: < 10 nM
HCT-116 colon
  GI50: < 10 nM
  TGI: < 10 nM
SF-268 CNS
  GI50: < 10 nM
  TGI: < 10 nM
MDA-MB-468 breast
  GI50: < 10 nM
  TGI: < 10 nM
